The values below are quoted from earlier work in patent US11173140B2, “Dosing regimens of PKC activators” (COGNITIVE RESEARCH ENTERPRISES, INC., priority 2015, dated 2021).

The test system of series [1] is PKC. Conditions: cited from earlier work.
In series [2] the target is PKC. Conditions: competition with [3H] phorbol dibutyrate; read-out: Ki, binding to PKC; cited from earlier work.
Series [3] deals with PKC. Conditions: cited from earlier work. The source holds these as a separate data set.
Series [4] relates to NCI 60 cell line screen. Conditions: NCI 60 cell lines; cited from earlier work.
The mark [5] stands for this setting: A-ring bryologs, read-out: affinity for PKC.

Molecules are shown by their SMILES. Read-outs that look alike come from different tables or passages of the source.

Consider `CCC1CC1CC1CC1CC1CC1CC1CC1CC1CC1CC1CC1CCC(=O)OC` (stereo not shown) [DHA-CP6, cyclopropanated docosahexaenoic acid methyl ester], for which the effective concentration in series [1] is given as 10 nM. As to `CC1=C[C@]23C(=O)[C@@H](C=C(COC(=O)c4ccccc4)[C@@H](O)[C@]2(O)[C@H]1OC(=O)c1ccccc1)[C@H]1[C@@H](C[C@H]3C)C1(C)C` [Ingenol 3,20-dibenzoate], in series [2], the Ki is 240 nM.

In the case of `CCCCCCCC(=O)OC1C(=CC(=O)OC)CC2CC(CO)OC(=O)CC(O)CCOC(c3ccccc3)CC3CCOC(C=CC(C)(C)C1(O)O2)O3` (stereo not shown) [bryolog 4], the Ki in series [3] (setting [5]) is 2.3 nM. For `CCCCCCCC(=O)OC1C(=CC(=O)OC)CC2CC(CO)OC(=O)CC(O)CCOC(C(C)(C)C)CC3CCOC(C=CC(C)(C)C1(O)O2)O3` (stereo not shown) [bryolog 3], the Ki in series [3] (setting [5]) is 6.5 nM. As to `CC1=CC[C@H](C)C(C)(C)[C@@H]1/C=C/C(C)=C/CC[C@@]1(CO)[C@H](CCCO)/C(=C(/C)C=O)CC[C@]1(C)O` [Iripallidal], in series [4], the “GI50 (concentration required to inhibit growth by 50%)” value was “micromolar to nanomolar range”. With `CCCCCCCC(=O)O[C@H]1/C(=C/C(=O)OC)C[C@H]2C[C@H](CO)OC(=O)C[C@H](O)C[C@@H]3CCC[C@H](C[C@@H]4CCO[C@H](/C=C/C(C)(C)[C@]1(O)O2)O4)O3` [Analog 1], the “affinity for PKC (in words)” value in series [3] is “highest affinity”. The Ki in series [3] (read-out: PKC Affin) is 0.25 nM.
